Experimental data reported in patent US20240150342A1, “ESTROGEN-RELATED RECEPTOR ALPHA MODULATORS” (LEAD PHARMA HOLDING B.V., priority 2019, published 2024).

Experiments:
[1] = molecular target: T1, ERRα ligand binding domain (ERRα-LBD) (Homo sapiens, UniProt P11474); experiment: ERRα AlphaScreen Assay; format: biochemical; conditions: disruption of binding of ERRα-LBD protein to biotin-PGC1α-3 co-activator peptide; read-out: mean pIC50 (converted)
T1 construct: made in house; host or cells: E. coli
T1 sequence (P11474 193-421 limits assumed): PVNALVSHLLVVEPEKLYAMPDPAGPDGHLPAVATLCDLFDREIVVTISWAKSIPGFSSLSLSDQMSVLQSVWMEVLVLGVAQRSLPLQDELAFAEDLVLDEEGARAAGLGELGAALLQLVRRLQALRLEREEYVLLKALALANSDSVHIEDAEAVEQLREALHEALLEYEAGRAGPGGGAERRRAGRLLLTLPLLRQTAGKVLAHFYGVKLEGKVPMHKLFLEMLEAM
In short: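 E. coli-expressed 6His-SUMO-ERRα-LBD (0.81 nM) incubated with compound and donor/acceptor beads 1 h, then 2 h with 15 nM biotin-PGC1α-3 peptide (aa 202–220); room temperature, Tris pH 7.5 buffer with TCEP, 1% DMSO, triplicates. Loss of co-activator binding read by AlphaScreen; four-parameter dose-response fit.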

[2] = test system: B16F10 melanoma; experiment: B16F10 Melanoma Syngeneic Mouse Model; format: in vivo; conditions: 30 mpk p.o., q.d., B16F10 allograft in C57BL/6 mice
Description: Example inhibitor 80 was tested for its ability to inhibit tumor growth in a B16F10 melanoma syngeneic mouse model. Cell line and tumor model: B16F10 melanoma cell line derived allograft model in C57BL/6 mice.
Mouse B16F10 melanoma cells were sourced from American Type Culture Collection (ATCC), USA. Cells were grown in DMEM (Invitrogen, Catalogue No. 31600-034) supplemented with 10% FBS (Invitrogen, Catalogue No. 10438-026), and 1% penicillin streptomycin (Thermo Fisher Scientific, Catalogue No. 15140-122). To establish allografts, the cells were harvested by trypsinization when they reach around 70 to 80% confluence and 0.1 million B16F10 cells were suspended in 50 μl of serum free medium and mixed at 1:1 ratio with matrigel before implanting subcutaneously into the dorsal right flank of mice using a 1 mL BD syringe attached to a 24-gauge needle.
B16F10 tumor grafts were measured after 5 days of cell inoculation once they became palpable. […]
Tumor dimensions—length (I) and breadth (b)—were measured by caliper on the day of animal randomization based on tumor volume (Day 1) and thrice weekly thereafter until study termination. Tumor volumes were calculated using the formula b^2*I*0.52 where I=length, b=breadth (Dusan Djokovic et al., BMC Cancer, 2010, 10:641). Tumor growth inhibition was calculated after normalizing the tumor volume on a given day to that on Day 1. […]

[3] = molecular target: T2, full length ERRα (Homo sapiens, UniProt P11474); experiment: Full Length ERRα Reporter Gene Assay; format: cell-based; conditions: SK-BR-3 cells, ERRα-RE luciferase reporter, overnight incubation; read-out: mean pIC50 (converted)
T2 construct: an over-expression construct coding full length ERRα; expressed in transfected cells; host or cells: SK-BR-3 cells, transient co-transfection of pLP2124 (pcDNA3.1/Hygro(+) background) and reporter pLP2175
T2 sequence (P11474 1-423): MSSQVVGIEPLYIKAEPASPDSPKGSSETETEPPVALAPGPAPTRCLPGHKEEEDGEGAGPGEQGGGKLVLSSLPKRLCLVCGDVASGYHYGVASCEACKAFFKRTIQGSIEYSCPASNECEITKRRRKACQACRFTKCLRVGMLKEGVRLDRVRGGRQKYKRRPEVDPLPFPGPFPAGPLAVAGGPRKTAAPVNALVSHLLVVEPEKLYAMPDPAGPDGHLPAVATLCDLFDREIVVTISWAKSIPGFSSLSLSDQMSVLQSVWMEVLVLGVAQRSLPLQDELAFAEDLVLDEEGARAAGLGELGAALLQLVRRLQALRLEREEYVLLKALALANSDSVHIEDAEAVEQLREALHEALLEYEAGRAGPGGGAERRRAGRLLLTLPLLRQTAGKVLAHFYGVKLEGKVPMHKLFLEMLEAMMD
Text: A method was established to quantitatively screen the potency of compounds with inverse agonistic activity on the nuclear receptor ERRα of the human species. The assay allows intra-cellular screening of ERRα inverse agonists in SK-BR-3 cells using an over-expression construct coding full length ERRα and a reporter construct containing an ERRα Response Element (RE) and a luciferase gene for read out. The activity is expressed in logIC50 values and can be used to determine SAR of compound families or to de-select compounds.
In this assay, reporter cells are obtained by transient co-transfection of two constructs in SK-BR-3 cells using standard transfection techniques. The first construct contains a response element of the nuclear receptor ERRα (Plasmid pLP2175, Reporter construct ERRα-RE/luc2P, cloned variant of ERRα_v2_synthRE, Switchgear Genomics, Catalog Number S900089). This sequence drives the transcription of the luciferase reporter gene in response to binding of an ERRα protein encoded by the second construct (Plasmid pLP2124: full length ERRα expression construct using pcDNA3.1/Hygro(+) as background, Invitrogen Catalog Number V87020).
The day after transfection, cells were plated into 96 well plates, the test compound was added and the plates were incubated overnight. Subsequently, the firefly luciferase activity was quantified using luciferase detection reagent and luminescence readout.
Transfection is performed on pre-seeded SK-BR-3 cells in a T175 flask. One transfected T175 flask is sufficient for seeding 3 to 4 MW96 plates the next day, depending on the confluency of the transfected cells.
Two different media are used in this protocol for cell treatment: 1) Culture medium, i.e. McCoy's 5a with phenol red (BioWhittaker Supplier Number 12-688F), 10% FBS and 1× Penstrep.; and, 2) Assay medium, i.e. McCoy's 5a Medium phenol red free (HyClone Product Code SH30270.01) with 2% Charcoal Stripped FBS and 1× Penstrep. Compound dilutions are prepared in assay medium.
Cells are seeded at least 2 days in advance to allow the cells to adhere well to flask before transfection. Cells should be 50-80% confluent at the day of transfection.
SKBR3 cells were transfected with the transcriptional reporter construct pLP2175 and the ERRα expression construct pLP2124 (as described above).
68 μL of Lipofectamine LTX transfection reagent (Invitrogen Catalog Number 15338-100) was added dropwise to 8.9 ml Opti-MEM I Reduced Serum Medium (Gibco Catalog Number 51985-026) and incubated at room temperature for 5 to 20 minutes. 8.9 ml of this reagent mixture was added to 22 μg pLP2175+22 μg pLP2124 (ratio 1:1 and total volume 10 ml), and incubated at room temperature for 25 minutes.
10 minutes before adding the transfection mix to SKBR3 cells in a T175 flask, the culture medium was refreshed with 20 mL culture medium. Subsequently, the 10 mL DNA-Opti-MEM-Lipofectamine mixture was gently added to the cells, followed by overnight (16-24 hours) incubation at 37° C. and 5% CO2.
To harvest SKBR3 cells from a T175 flask, first the medium was removed. Subsequently, cells were washed with Phosphate Buffered Saline (PBS) (Lonza), after which the PBS was removed. To dissociate the cells, 2 ml of TrypLE Express (I nvitrogen) was added to the flask, followed by incubation at 37° C. for 5 minutes. The flask was tapped until cells were detached from the bottom. Cells were collected in 8 mL of culture medium (McCoy's 5a, 10% FBS, penstrep), to achieve a single cell suspension. After cell count, cells were spun down for 5 minutes at 300 g. Next cell pellets were re-suspended to 25000 cells/80 μl assay medium (McCoy's 5a phenol red free, 2% charcoal stripped FBS, penstrep).
For compound screening, the cells were harvested (as described above). 80 μL of cell suspension (25,000 cells) was plated per well into a white, flat bottom, tissue culture treated, 96 well screening plates (Greiner). […]

IC50 [1] [µM] | IC50 [3] [µM] | Compound | Tumor Volume (mm^3) Day 13 [2] [mm^3] | Tumor Growth Inhibition (%) ([2]; Day 13)
≤ 0.01 |  | COc1cc(C2CC(=O)Nc3n[nH]cc32)ccc1Oc1cc(C(F)(F)F)cc(C(F)(F)F)c1 (single isomer, unassigned; (-)) [Example 80, (−)-4-{4-[3,5-bis(trifluoromethyl)phenoxy]-3-methoxyphenyl}-2H,4H,5H,6H,7H-pyrazolo[3,4-b]pyridin-6-one] | 684 ± 82 | 64
≤ 0.01 | ≤ 0.316 | COc1ccc(Oc2ccc(-c3cc(=O)[nH]c4n[nH]cc34)cc2OC)c(C(C)(C)C)c1 [Example 68, 4-[4-(2-tert-butyl-4-methoxyphenoxy)-3-methoxyphenyl]-2H,6H,7H-pyrazolo[3,4-b]pyridin-6-one] |  | 
≤ 0.01 | ≤ 0.316 | COc1cc(-c2cc(=O)[nH]c3n[nH]cc23)ccc1Oc1ccc(C)cc1C(C)(C)C [Example 69, 4-[4-(2-tert-butyl-4-methylphenoxy)-3-methoxyphenyl]-2H,6H,7H-pyrazolo[3,4-b]pyridin-6-one] |  | 
≤ 0.01 | ≤ 0.316 | COc1cc(-c2cc(=O)[nH]c3n[nH]cc23)ccc1Oc1ccc(Br)cc1C(C)(C)C [Example 70, 4-[4-(4-bromo-2-tert-butylphenoxy)-3-methoxyphenyl]-2H,6H,7H-pyrazolo[3,4-b]pyridin-6-one] |  | 
